In PMC11078746 (Nature, 2024):
Where “and” joins values, the source holds several entries; their conditions need not be identical. Equal entries are not always repeated.

Assays:
CL34 = assay: CFA 10-14 day clonogenic assay; assay type: cell-based; conditions: Homo sapiens
HCT116 [1] = assay: CFA 10-14 day clonogenic assay; assay type: cell-based; conditions: Homo sapiens, HCT-116
HEC265 [2] = assay: CFA 10-14 day clonogenic assay; assay type: cell-based; conditions: Homo sapiens
KM12 = assay: CFA 10-14 day clonogenic assay; assay type: cell-based; conditions: Homo sapiens
HEC59 = assay: CFA 10-14 day clonogenic assay; assay type: cell-based; conditions: Homo sapiens
OVK18 = assay: CFA 10-14 day clonogenic assay; assay type: cell-based; conditions: Homo sapiens
RKO = assay: CFA 10-14 day clonogenic assay; assay type: cell-based; conditions: Homo sapiens
SNUC5 = assay: CFA 10-14 day clonogenic assay; assay type: cell-based; conditions: Homo sapiens
LIM2405 = assay: CFA 10-14 day clonogenic assay; assay type: cell-based; conditions: Homo sapiens
JHUEM2 = assay: CFA 10-14 day clonogenic assay; assay type: cell-based; conditions: Homo sapiens
SNU520 = assay: CFA 10-14 day clonogenic assay; assay type: cell-based; conditions: Homo sapiens
HEC1A = assay: CFA 10-14 day clonogenic assay; assay type: cell-based; conditions: Homo sapiens, HEC-1-A
NUGC3 = assay: CFA 10-14 day clonogenic assay; assay type: cell-based; conditions: Homo sapiens, NUGC-3
SNU1 = assay: CFA 10-14 day clonogenic assay; assay type: cell-based; conditions: Homo sapiens
1119-HX xenograft = assay: MSI xenograft model efficacy; assay type: in vivo, mouse; conditions: colorectal carcinoma, 60 or 120 mg/kg
Method: (§1) All animal studies were conducted in accordance with ethics and procedures covered by permit BS-2275 and BS-1975 issued by the Kantonales Veterinäramt Basel-Stadt and in strict adherence to guidelines of the Eidgenössisches Tierschutzgesetz and the Eidgenössische Tierschutzverordnung, Switzerland. All animal studies were approved by the internal ethics committee. All animals had access to food and water ad libitum and were identified with transponders. They were housed in a specific-pathogen-free facility in IVC racks under a 12 h–12 h light–dark cycle. To establish cell-line-derived xenograft models, 6–7-week-old female athymic nude (Crl:NU(NCr)-Foxn1^nu) or SCID-BEIGE (CB17.Cg-PrkdcscidLystbg-J/Crl) mice from Charles River were engrafted subcutaneously with 5 million tumour cells in HBSS (H6648, Sigma-Aldrich). For SNU-407, Lovo, IM95, RL95.2, Ishikawa and IGROV-1, the cells were concentrated in 50% Matrigel (354234, Corning). Patient-derived xenografts were induced and expanded by transplantation as previously described. […] For the efficacy experiment, mice were randomized into groups (n = 5–6) for a mean tumour size of 100–150 mm^3. […] Blood samples were collected on day 7 and 91. […] Tumour responses are reported with the measures of tumour volumes from the treatment start. […] Animals were randomized (n = 3) and tumour samples were collected at 0, 1, 4, 8 and 24 h on the first day and then collected 4 h after the last treatment on day 3, 8, 10, 14 (including a 24 h timepoint), 17 and 21. Tumours were excised, weighed, either frozen in liquid nitrogen and cryogenic dry pulverized with the CryoPrep system (model CP-02, Covaris) or processed to FFPE after fixation. […] On day 12, blood samples were collected for PK analysis. On the last day (3 h after the last treatment), tumours were excised, weighed, frozen in liquid nitrogen and cryogenic dry pulverized for PD analysis.

23132/87 xenograft = assay: MSI xenograft model efficacy; assay type: in vivo, mouse; conditions: 23132/87, Gastric carcinoma; 60 or 120 mg/kg
Method: as §1

[3] = tested on: HCT116 TP53 null xenograft; assay: MSI xenograft model efficacy; assay type: in vivo, mouse; conditions: for Mean TVol / Tumour volume (TVol): HCT116 p53 null, 60 mpk; for Tumour volume (TVol): single mouse, 60 mg/kg
Method: as §1

HEC6 xenograft = assay: MSI xenograft model efficacy; assay type: in vivo, mouse; conditions: HEC6, Endometrial carcinoma; 60 or 120 mg/kg
Method: as §1

Ishikawa xenograft = assay: MSI xenograft model efficacy; assay type: in vivo, mouse; conditions: Endometrial carcinoma, 60 or 120 mg/kg
Method: as §1

HEC6 = assay: 4 day proliferation assay (CellTiter-Glo); conditions: Homo sapiens, HEC-6, 96 h, read-out: 4 day assay GI50
HCT116 [4] = assay: 4 day proliferation assay (CellTiter-Glo)
HEC265 [5] = assay: 4 day proliferation assay (CellTiter-Glo); conditions: Homo sapiens, 96 h, read-out: 4 day assay GI50
HEC108 = assay: 4 day proliferation assay (CellTiter-Glo); conditions: Homo sapiens, 96 h, read-out: 4 day assay GI50
DLD-1 (HCT15) = assay: 4 day proliferation assay (CellTiter-Glo); conditions: Homo sapiens, 96 h, read-out: 4 day assay GI50
CAL33 = assay: 4 day proliferation assay (CellTiter-Glo); conditions: Homo sapiens, CAL-33, 96 h, read-out: 4 day assay GI50
EN = assay: 4 day proliferation assay (CellTiter-Glo); conditions: Homo sapiens, 96 h, read-out: 4 day assay GI50

Question: Which results are given for `CCc1c(N2CCN(C(=O)c3ncnc(C)c3O)CC2)c(=O)n2nc(C3=CCOCC3)nc2n1CC(=O)Nc1ccc(C(F)(F)F)cc1Cl` [HRO761]?
Answer: GI50 (CL34): 39 nM; GI50 (HCT116 [1]): 59 nM; GI50 (HEC265 [2]): 61 nM; GI50 (KM12): 100 nM; GI50 (HEC59): 133 nM; GI50 (OVK18): 150 nM; GI50 (RKO): 243 nM; GI50 (SNUC5): 418 nM; GI50 (LIM2405): 452 nM; GI50 (JHUEM2): 929 nM; GI50 (SNU520): 1740 nM; GI50 (HEC1A): ≥ 10000 nM; GI50 (NUGC3): ≥ 10000 nM; GI50 (SNU1): ≥ 10000 nM; Best average response (1119-HX xenograft): -14; Best average response (23132/87 xenograft): 200; Best average response ([3]; HCT116 P53 null, colorectal carcinoma, 60 or 120 mg/kg): -100; Mean TVol ([3]; day 0): 151.89 mm3; Tumour volume (TVol) ([3]; day 0): 114.28 mm3 and 172.75 mm3 and 98.96 mm3 and 162.60 mm3 and 112.69 mm3 and 250.04 mm3; Mean TVol ([3]; day 3): 243.48 mm3; Tumour volume (TVol) ([3]; day 3): 162.58 mm3 and 332.14 mm3 and 148.24 mm3 and 251.18 mm3 and 212.27 mm3 and 354.49 mm3; Mean TVol ([3]; day 7): 201.27 mm3; Tumour volume (TVol) ([3]; day 7): 115.63 mm3 and 278.64 mm3 and 112.69 mm3 and 190.13 mm3; Mean TVol ([3]; day 10): 167.32 mm3; Mean TVol ([3]; day 14): 78.55 mm3; Tumour volume (TVol) ([3]; day 14): 57.94 mm3 and 66.94 mm3 and 44.25 mm3 and 61.17 mm3 and 71.26 mm3 and 169.76 mm3; Mean TVol ([3]; day 17): 56.92 mm3; Tumour volume (TVol) ([3]; day 17): 38.70 mm3 and 22.79 mm3 and 27.88 mm3 and 45.55 mm3 and 49.32 mm3 and 157.29 mm3; Mean TVol ([3]; day 21): 29.14 mm3; Tumour volume (TVol) ([3]; day 21): 20.42 mm3 and 11.20 mm3 and 10.29 mm3 and 21.47 mm3 and 18.24 mm3 and 93.23 mm3; Mean TVol ([3]; day 24): 15.47 mm3; Tumour volume (TVol) ([3]; day 24): 13.85 mm3 and 5.24 mm3 and 5.28 mm3 and 4.25 mm3 and 8.53 mm3 and 55.64 mm3; Mean TVol ([3]; day 29): 6.87 mm3; Tumour volume (TVol) ([3]; day 29): 2.43 mm3 and 4.29 mm3 and 1.21 mm3 and 1.27 mm3 and 2.76 mm3 and 29.26 mm3; Mean TVol ([3]; day 31): 4.02 mm3; Tumour volume (TVol) ([3]; day 31): 2.71 mm3 and 2.05 mm3 and 0.39 mm3 and 0.99 mm3 and 0.92 mm3 and 17.07 mm3; Mean TVol ([3]; day 35): 3.16 mm3; Tumour volume (TVol) ([3]; day 35): 1.81 mm3 and 0.00 mm3 (2×) and 0.17 mm3 and 0.75 mm3 and 16.24 mm3; Mean TVol ([3]; day 38): 4.17 mm3; Tumour volume (TVol) ([3]; day 38): 0.58 mm3 and 0.00 mm3 (3×) and 1.01 mm3 and 23.40 mm3; Mean TVol ([3]; day 42): 4.73 mm3; Tumour volume (TVol) ([3]; day 42): 0.90 mm3 and 0.00 mm3 (4×) and 27.46 mm3; Mean TVol ([3]; day 45): 6.85 mm3; Tumour volume (TVol) ([3]; day 45): 1.68 mm3 and 0.00 mm3 (4×) and 39.40 mm3; Mean TVol ([3]; day 49): 7.67 mm3; Tumour volume (TVol) ([3]; day 49): 0.00 mm3 (5×) and 46.01 mm3; Mean TVol ([3]; day 53): 9.89 mm3; Tumour volume (TVol) ([3]; day 53): 0.00 mm3 (5×) and 59.36 mm3; Mean TVol ([3]; day 56): 14.65 mm3; Tumour volume (TVol) ([3]; day 56): 0.00 mm3 (5×) and 87.90 mm3; Mean TVol ([3]; day 60): 17.60 mm3; Tumour volume (TVol) ([3]; day 60): 0.63 mm3 and 0.00 mm3 (4×) and 104.97 mm3; Best average response (HEC6 xenograft): -75; Best average response (Ishikawa xenograft): -70; GI50 (HEC6): 365 nM; GI50 (HCT116 [4]; Homo sapiens, HCT-116, 96 h, read-out: 4 day assay GI50, HCT116): 116 nM; GI50 (HCT116 [4]; read-out: 4 day assay GI50, HCT116): 143 nM; GI50 (HEC265 [5]): ≥ 10000 nM; GI50 (HEC108): 1460 nM; GI50 (DLD-1 (HCT15)): ≥ 10000 nM; GI50 (CAL33): ≥ 10000 nM; GI50 (EN): ≥ 10000 nM
